From patent US20240277829A1, “HIV-1 VACCINATION AND SAMT-247 MICROBICIDE TO PREVENT HIV-1 INFECTION” (priority 2021, published 2024)

Legend:
[1] = tested on: human PBMC effector cells; assay: ADCC assay using SAMT-247; assay type: cell-based
Experimental: ADCC CEM-based assay. ADCC activity was assessed as previously described using EGFP-CEM-NKr-CCR5-SNAP cells that constitutively express GFP as targets (Rahman, M. A., et al, J Immunol 203, 2459-2471(2019)). Briefly, one million target cells were incubated with 50 μg of ΔV1 gp120 protein for 2 h at 37° C. After this coating, the target cells were washed and labeled with SNAP-SURFACE® ALEXA FLUOR® 647 (New England Biolabs, Connecticut, USA S9136S) per manufacturer recommendations for 30 min at RT. Plasma samples, heat inactivated at 56° C. for 30 min, were serially diluted (7 ten-fold dilutions starting at 1:10) and 100 μl were added to wells of a 96-well V-bottom plate (Millipore Sigma). 5000 target cells (50 μl) and 250,000 human PBMCs (50 μl) were added as effectors to each well to give an effector/target (E/T) ratio of 50:1. The plate was incubated at 37° C. for 2 h followed by two PBS washes. […] Specific killing was measured by loss of GFP from the SNAPAlexa647+ target cells. […] Normalized percent killing was calculated as: (killing in the presence of plasma-background)/(killing in the presence of KK17-background) X100. […]
ADCC assay using SAMT-247. […] SAMT-247 induced ADCC was measured by subtracting ADCC with no SAMT-247 treated effector cells from ADCC with SAMT-247 treated effector cells.

CD14^+ cells = assay: Efferocytosis assay using SAMT-247 and gp120 pooled peptides; assay type: cell-based, macaque
Experimental: Efferocytosis assay. The frequency of efferocytotic CD14^+ cells was assessed by Efferocytosis Assay kit (#601770, Cayman Chemical company, Ann Arbor, MI, USA). CD14^+ cells were used as effector cells, whereas apoptotic neutrophils were used as target cells. The protocol was readapted in order to use CD14^+ monocyte cells rather than differentiated macrophages due to the low cell availability. CD14^+ cells were isolated from cryopreserved PBMCs (10×10^6 cells) collected following pre-study and 2 weeks post last immunization (week 14) or 5 weeks post last immunization (week 17) by using non-human primate CD14 microbeads (#130-091-097, Miltenyi Biotec Inc.) and following manufacturer instructions. At the end of the separation cells were counted and stained with CYTOTELL™ Blue provided by the kit and following manufacturer instructions. One unrelated macaque was used as source of neutrophils as target cells. Neutrophils were isolated as previously described (Khandpur, R., et al., Sci Transl Med 5, 178ra140 (2013)). Briefly, following isolation of PBMCs by Ficoll Plaque (GE Healthcare), the cellular pellet was added to an equal volume of 20% dextran in water, gently mixed, and incubated for 1 min. Approximately three volumes of PBS were added, mixed again and incubated in the dark for 50-60 minutes. At the end of incubation, the clear layer at the top of the tube containing neutrophils was collected. Cells were pelleted and treated with ACK lysing buffer (Quality Biological, Gaithersburg, MD, USA) for 5 min at 37° C., washed with R10 and counted. Neutrophils were stained with CFSE provided by the kit and following manufacturer instructions. The apoptosis of neutrophils was induced by treatment with Staurosporine Apoptosis inducer provided by the kit. Briefly, isolated cells were resuspended in R10 containing Staurosporine diluted 1:1000 and incubated at 37° C. for 3 hours. At the end of the incubation cells were washed twice with R10 and used for the efferocytosis assay. Subsequently, effector and apoptotic target cells were cultured alone (as controls) or cocultured at a ratio of one effector CD14^+ cell and three target apoptotic neutrophils. Cells were incubated at 37° C. for 12 hours. At the end of the coculture, cells were washed with PBS, fixed with 1% paraformaldehyde in PBS and acquired on a FACSYMPHONY™ A5 and examined using FACSDIVA™ software (BD Biosciences) by acquiring all stained cells. Data were further analyzed using FlowJo v10.1 (Treestar, Inc., Ashland, OR). The frequency of efferocytotic CD14^+ cells was determined as the frequency of double-positive cells for CYTOTELL™ Blue and CFSE on the CYTOTELL™ Blue positive monocytes.
Efferocytosis assay using SAMT-247 and gp120 pooled peptides. Efferocytosis was done as described above with the exception that SAMT-247 and/or gp120 pooled peptides were added to the co-culture for 12 hours. SAMT-247 induced Efferocytosis was measured by subtracting Efferocytosis with no SAMT-247 treated effector cells from Efferocytosis with SAMT-247 treated effector cells.

[2] = CD14^+ cells collected pre and two weeks after last immunization
[3] = sorted monocytes from PBMCs stimulated with gp120 peptides ± SAMT-247

CC(=O)Sc1ccccc1C(=O)NCCC(N)=O [SAMT-247]
Function ([1]; NKG2A^+, Blood and mucosa, PMA): >ADCC | ADCC activity mediated by the plasma of all vaccinated animals ([1]; effector human PBMCs pretreated with 100 nM SAMT-247 for 4 hours): significantly augments | per-cell amount of engulfed apoptotic cells (MFI) (CD14^+ cells; [2]): augmented | percentage of CD14^+ cells engulfing apoptotic cells (CD14^+ cells; [2]): augmented | Function (CD14^+ cells; Monocytes unstimulated or +gp120 peptides): >Efferocytosis | per-cell amount of cells engulfed (MFI) (CD14^+ cells; [3]): reconstituted | percentage of CD14^+ cells engulfing apoptotic neutrophils (CD14^+ cells; [3]): reconstituted
